Literature values as cited in PMC8847371 (Nature Communications, 2022).

Assays:
COVID-19 [1] = test system: COVID-19; set-up: method as in recent press release; conditions: early administration, high risk patients with mild to moderate symptoms; ref recent press release; cited from earlier work
COVID-19 [2] = test system: COVID-19; set-up: method as in MOVe-OUT trial (NCT04575597); conditions: phase 3, high-risk patients with mild to moderate COVID-19; ref MOVe-OUT trial (NCT04575597); cited from earlier work
SARS-CoV-2 = conditions: cited from earlier work
SARS-CoV-2 VoC = conditions: cited from earlier work

SMILES | reduction of likelihood of hospitalization (COVID-19 [1]) [%] | risk of hospitalization or death (COVID-19 [2]) | efficacy in the SARS-CoV-2 hamster infection model (SARS-CoV-2) | in vitro potency against the four VOC (SARS-CoV-2 VoC)
CCC(CC)COC(=O)[C@H](C)N[P@](=O)(OC[C@H]1O[C@@](C#N)(c2ccc3c(N)ncnn23)[C@H](O)[C@@H]1O)Oc1ccccc1 [Veklury] | 87 |  |  | 
CC(C)C(=O)OC[C@H]1O[C@@H](n2ccc(NO)nc2=O)[C@H](O)[C@@H]1O [Molnupiravir] |  | significant reduction | effective | equipotent
